Measured values as given in patent US4933363A, “Method for effecting systemic delivery of delta-9-tetrahydrocannabinol” (priority 1988, dated 1990).

How the values were obtained:
[1] = Bioavailability of parent delta-9-tetrahydrocannabinol from a suppository (GC/MS of blood samples); assay type: in vivo, monkey; conditions: 10 mg/suppository
Procedure: The parent drug delta-9-tetrahydrocannabinol was formulated in a suppository form at 10 mg/suppository using Witepsol-H15 as the base. One suppository was administered to a monkey and blood samples collected at the same time intervals as shown under Examples II-V. GC/MS analysis of these samples was carried out for delta-9-tetrahydrocannabinol and its metabolite.

[2] = various suppository formulations; cited from earlier work
[3] = 4×4 Latin square comparison of i.v., oral and suppository administration (GC/MS plasma levels); conditions: for Mean delta-9-tetrahydrocannabinol level in plasma: four monkeys; for concentration at 0.1 h / concentration at 0.25 h / concentration at 0.5 h / concentration at 1 h / concentration at 1.5 h / concentration at 2 h / concentration at 3 h / concentration at 4 h / concentration at 6 h / concentration at 8 h / concentration at 24 h: monkey, plasma
[4] = cited from earlier work
[5] = Suppository of N-methyl glucamine salt vs free hemisuccinate ester (GC/MS blood levels); conditions: equivalent to 10 mg parent drug per suppository, monkeys
[6] = Witepsol-H15, one monkey, GC/MS, all time points
[7] = i.v., 0.5 mg/kg parent equivalent, 0.0 hr

CCCCCc1cc(O)c2c(c1)OC(C)(C)[C@@H]1CCC(C)=C[C@@H]21 [delta-9-tetrahydrocannabinol]
bioavailability from a suppository dosage form ([1]; Witepsol-H15, monkey): lack of bioavailability
delta-9-tetrahydrocannabinol detected in blood samples [1, 6]: Neither delta-9-tetrahydrocannabinol nor its metabolite was detected
metabolite (11-nor-delta-9-tetrahydrocannabinol-9-COOH) detected in blood samples [1, 6]: Neither delta-9-tetrahydrocannabinol nor its metabolite was detected
absorption and bioavailability via the rectal route [2]: no absorption, consequently no bioavailability achieved via the rectal route
Mean delta-9-tetrahydrocannabinol level in plasma [3, 7]: 0.0 ng/mL
concentration at 0.1 h ([3]; iv, 0.5 mg/kg): 1680 ng/mL
concentration at 0.25 h ([3]; iv, 0.5 mg/kg): 335 ng/mL
concentration at 0.5 h ([3]; iv, 0.5 mg/kg): 170 ng/mL
concentration at 1 h ([3]; iv, 0.5 mg/kg): 102 ng/mL
concentration at 1.5 h ([3]; iv, 0.5 mg/kg): 67.3 ng/mL
concentration at 2 h ([3]; iv, 0.5 mg/kg): 55.8 ng/mL
concentration at 3 h ([3]; iv, 0.5 mg/kg): 34 ng/mL
concentration at 4 h ([3]; iv, 0.5 mg/kg): 22.8 ng/mL
concentration at 6 h ([3]; iv, 0.5 mg/kg): 29 ng/mL
concentration at 8 h ([3]; iv, 0.5 mg/kg): 17.3 ng/mL
concentration at 24 h ([3]; iv, 0.5 mg/kg): 2.5 ng/mL
concentration at 3 h ([3]; po, 10 mg): 0.5 ng/mL
concentration at 4 h ([3]; po, 10 mg): 1.3 ng/mL
concentration at 6 h ([3]; po, 10 mg): 2.3 ng/mL
concentration at 8 h ([3]; po, 10 mg): 4.3 ng/mL
concentration at 24 h ([3]; po, 10 mg): 0.8 ng/mL
Mean delta-9-tetrahydrocannabinol level in plasma ([3]; oral, 10 mg in sesame oil, 0.0 hr): 0.0 ng/mL
Mean delta-9-tetrahydrocannabinol level in plasma ([3]; oral, 10 mg in sesame oil, 0.1 hr): 0.0 ng/mL
Mean delta-9-tetrahydrocannabinol level in plasma ([3]; oral, 10 mg in sesame oil, 0.25 hr): 0.0 ng/mL
Mean delta-9-tetrahydrocannabinol level in plasma ([3]; oral, 10 mg in sesame oil, 0.5 hr): 0.0 ng/mL
Mean delta-9-tetrahydrocannabinol level in plasma ([3]; oral, 10 mg in sesame oil, 1.0 hr): 0.0 ng/mL
Mean delta-9-tetrahydrocannabinol level in plasma ([3]; oral, 10 mg in sesame oil, 1.5 hr): 0.0 ng/mL
Mean delta-9-tetrahydrocannabinol level in plasma ([3]; oral, 10 mg in sesame oil, 2.0 hr): 0.0 ng/mL
bioavailability via the oral routes ([4]; oral (e.g. chocolate cookies, sesame oil capsules)): quite low
effect of fasting or food deprivation on absorption from the gastrointestinal tract ([4]; oral, fasting or food deprivation): decreased by fasting or food deprivation
interpatient variability in absorption ([4]; oral, patients): extreme interpatient variability in absorption
oral absorption ([4]; oral): slow and erratic

CCCCCc1cc(OC(=O)CCC(=O)O)c2c(c1)OC(C)(C)[C@@H]1CCC(C)=C[C@@H]21 [Delta-9-tetrahydrocannabinol hemisuccinate ester]
equivalency of intravenous dosage of ester to intravenous dosage of parent ([3]; i.v., 0.5 mg/kg parent drug equivalent, monkeys): equivalency of the intravenous dosage of the hemisuccinate ester of delta-9-tetrahydrocannabinol to the intravenous dosage of the parent delta-9-tetrahydrocannabinol
Mean delta-9-tetrahydrocannabinol level in plasma [3, 7]: 0.0 ng/mL
concentration at 0.25 h [3]: 14.8 ng/mL
concentration at 0.5 h [3]: 33.5 ng/mL
concentration at 1 h [3]: 46 ng/mL
concentration at 1.5 h [3]: 53.5 ng/mL
concentration at 2 h [3]: 53.3 ng/mL
concentration at 3 h [3]: 50 ng/mL
concentration at 4 h [3]: 38 ng/mL
concentration at 6 h [3]: 18.5 ng/mL
concentration at 8 h [3]: 12.8 ng/mL
concentration at 24 h [3]: 1.3 ng/mL
concentration at 0.1 h ([3]; iv, 0.5 mg/kg): 2060 ng/mL
concentration at 0.25 h ([3]; iv, 0.5 mg/kg): 669 ng/mL
concentration at 0.5 h ([3]; iv, 0.5 mg/kg): 251 ng/mL
concentration at 1 h ([3]; iv, 0.5 mg/kg): 95.8 ng/mL
concentration at 1.5 h ([3]; iv, 0.5 mg/kg): 65.3 ng/mL
concentration at 2 h ([3]; iv, 0.5 mg/kg): 42.5 ng/mL
concentration at 3 h ([3]; iv, 0.5 mg/kg): 26.3 ng/mL
concentration at 4 h ([3]; iv, 0.5 mg/kg): 18.5 ng/mL
concentration at 6 h ([3]; iv, 0.5 mg/kg): 13 ng/mL
concentration at 8 h ([3]; iv, 0.5 mg/kg): 8 ng/mL
concentration at 24 h ([3]; iv, 0.5 mg/kg): 2.5 ng/mL
delivery of delta-9-tetrahydrocannabinol to the blood vs oral sesame seed oil formulation of parent ([3]; suppository vs oral 10 mg, monkeys): extraordinary superiority
Mean delta-9-tetrahydrocannabinol level in plasma ([3]; suppository, 0.0 hr): 0.0 ng/mL
Mean delta-9-tetrahydrocannabinol level in plasma ([3]; suppository, 0.1 hr): 0.0 ng/mL
blood levels, free ester vs N-methyl glucamine salt suppository [5]: virtually equivalent
